Test results published in PMC6979384, “Characterization of the plant homeodomain (PHD) reader family for their histone tail interactions” (Epigenetics & Chromatin, 2020).
Where no end group is shown, it is not given here.

Tests used:
Assay in all cases: Histone peptide microarray
Format in all cases: binding, human
PHRF1 (RP) = settings: GST-tagged PHRF1 (RP); histone peptide array; arrays performed twice, n of 4
Method in brief: (§1)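 GST-tagged PHD finger readers were expressed, purified and applied at 0.5 μM to a microarray of 293 synthetic histone peptides carrying single or combinatorial PTMs, using an optimized protocol. Binding signals are averages with standard deviation from 4 replicates.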

KDM5B (3) = settings: GST-tagged KDM5B (3); histone peptide array; arrays performed twice, n of 4
Method in brief: as §1

ING2 = settings: GST-tagged ING2; histone peptide array; arrays performed twice, n of 4
Method in brief: as §1

KDM4C (TTP) = settings: GST-tagged KDM4C (TTP = Tandem Tudor domain + PHD); histone peptide array; arrays performed twice, n of 4
Method in brief: as §1

DIDO1 = settings: GST-tagged DIDO1; histone peptide array; arrays performed twice, n of 4
Method in brief: as §1

ING5 = settings: GST-tagged ING5; histone peptide array; arrays performed twice, n of 4
Method in brief: as §1

DPF2 (PPC2W2) = settings: GST-tagged DPF2 (PPC2W2 = Dual PHD + C2W2-type Zn-finger); histone peptide array; arrays performed twice, n of 4
Method in brief: as §1

PHF8 = settings: GST-tagged PHF8; histone peptide array; arrays performed twice, n of 4
Method in brief: as §1

ING4 = settings: GST-tagged ING4; histone peptide array; arrays performed twice, n of 4
Method in brief: as §1

SP140L = settings: GST-tagged SP140L; histone peptide array; arrays performed twice, n of 4
Method in brief: as §1

CHD5 (PPCC) = settings: GST-tagged CHD5 (PPCC = Dual PHD + Dual Chromodomain); histone peptide array; arrays performed twice, n of 4
Method in brief: as §1

TRIM66 (PB) = settings: GST-tagged TRIM66 (PB = PHD + Bromodomain); histone peptide array; arrays performed twice, n of 4
Method in brief: as §1

PHF2 = settings: GST-tagged PHF2; histone peptide array; arrays performed twice, n of 4
Method in brief: as §1

ING3 = settings: GST-tagged ING3; histone peptide array; arrays performed twice, n of 4
Method in brief: as §1

CHD4 (PPCC) = settings: GST-tagged CHD4 (PPCC = Dual PHD + Dual Chromodomain); histone peptide array; arrays performed twice, n of 4
Method in brief: as §1

AIRE (PP) = settings: GST-tagged AIRE (PP); histone peptide array; arrays performed twice, n of 4
Method in brief: as §1

KDM5A (1) = settings: GST-tagged KDM5A (1); histone peptide array; arrays performed twice, n of 4
Method in brief: as §1

MORC3 (CW) = settings: GST-tagged MORC3 (CW = CW-type Zn-finger); histone peptide array; arrays performed twice, n of 4
Method in brief: as §1

MLL5 = settings: GST-tagged MLL5; histone peptide array; arrays performed twice, n of 4
Method in brief: as §1

TAF3 = settings: GST-tagged TAF3; histone peptide array; arrays performed twice, n of 4
Method in brief: as §1

ING1 = settings: GST-tagged ING1; histone peptide array; arrays performed twice, n of 4
Method in brief: as §1

KDM7A = settings: GST-tagged KDM7A; histone peptide array; arrays performed twice, n of 4
Method in brief: as §1

CHD5 (PCC) = settings: GST-tagged CHD5 (PCC = PHD + Dual Chromodomain); histone peptide array; arrays performed twice, n of 4
Method in brief: as §1

KDM5A (3) = settings: GST-tagged KDM5A (3); histone peptide array; arrays performed twice, n of 4
Method in brief: as §1

PHF13 = settings: GST-tagged PHF13; histone peptide array; arrays performed twice, n of 4
Method in brief: as §1

BAZ2B = settings: GST-tagged BAZ2B; histone peptide array; arrays performed twice, n of 4
Method in brief: as §1

RAG2 = settings: GST-tagged RAG2; histone peptide array; arrays performed twice, n of 4
Method in brief: as §1

BPTF (PB) = settings: GST-tagged BPTF (PB = PHD + Bromodomain); histone peptide array; arrays performed twice, n of 4
Method in brief: as §1

PHF23 = settings: GST-tagged PHF23; histone peptide array; arrays performed twice, n of 4
Method in brief: as §1

PHF21A = settings: GST-tagged PHF21A; histone peptide array; arrays performed twice, n of 4
Method in brief: as §1

KDM5B (1) = settings: GST-tagged KDM5B (1); histone peptide array; arrays performed twice, n of 4
Method in brief: as §1

H3 (74-84) N-ac: H3 74-84 (Ac-IAQDFKTDLRF; UniProt P68431 75-85, looked up, fragment)
Array Heatmap signal, PHRF1 (RP) (PHRF1 (RP)): 0.4448 | Array Heatmap signal, KDM5B (3) (KDM5B (3)): 0.4839 | Array Heatmap signal, ING2 (ING2): 0.6419 | Array Heatmap signal, KDM4C (TTP) (KDM4C (TTP)): 0.495 | Array Heatmap signal, DIDO1 (DIDO1): 0.7101 | Array Heatmap signal, ING5 (ING5): 0.3669 | Array Heatmap signal, DPF2 (PPC2W2) (DPF2 (PPC2W2)): 0.6686 | Array Heatmap signal, PHF8 (PHF8): 0.3664 | Array Heatmap signal, ING4 (ING4): 0.4711 | Array Heatmap signal, SP140L (SP140L): 0.3545 | Array Heatmap signal, CHD5 (PPCC) (CHD5 (PPCC)): 0.5613 | Array Heatmap signal, TRIM66 (PB) (TRIM66 (PB)): 0.6043 | Array Heatmap signal, PHF2 (PHF2): 0.5329 | Array Heatmap signal, ING3 (ING3): 0.5027 | Array Heatmap signal, CHD4 (PPCC) (CHD4 (PPCC)): 0.602 | Array Heatmap signal, AIRE (PP) (AIRE (PP)): 0.4661 | Array Heatmap signal, KDM5A (1) (KDM5A (1)): 0.4913 | Array Heatmap signal, MORC3 (CW) (MORC3 (CW)): 0.4011 | Array Heatmap signal, MLL5 (MLL5): 0.5353 | Array Heatmap signal, TAF3 (TAF3): 0.2845 | Array Heatmap signal, ING1 (ING1): 0.5586 | Array Heatmap signal, KDM7A (KDM7A): 0.3521 | Array Heatmap signal, CHD5 (PCC) (CHD5 (PCC)): 0.8195 | Array Heatmap signal, KDM5A (3) (KDM5A (3)): 0.4833 | Array Heatmap signal, PHF13 (PHF13): 0.618 | Array Heatmap signal, BAZ2B (BAZ2B): 0.4698 | Array Heatmap signal, RAG2 (RAG2): 0.2671 | Array Heatmap signal, BPTF (PB) (BPTF (PB)): 0.3549 | Array Heatmap signal, PHF23 (PHF23): 0.5407 | Array Heatmap signal, PHF21A (PHF21A): 0.4735 | Array Heatmap signal, KDM5B (1) (KDM5B (1)): 0.7009
